pKi: −log10 of the molar value.
What was measured:
[1] = target: T1, UDP-glucuronosyltransferase 2B17 (Homo sapiens, UniProt O75795); test: Inhibition of human recombinant UGT2B17 assessed as reduction of scopoletin glucuronidation
T1 sequence (O75795 whole entry): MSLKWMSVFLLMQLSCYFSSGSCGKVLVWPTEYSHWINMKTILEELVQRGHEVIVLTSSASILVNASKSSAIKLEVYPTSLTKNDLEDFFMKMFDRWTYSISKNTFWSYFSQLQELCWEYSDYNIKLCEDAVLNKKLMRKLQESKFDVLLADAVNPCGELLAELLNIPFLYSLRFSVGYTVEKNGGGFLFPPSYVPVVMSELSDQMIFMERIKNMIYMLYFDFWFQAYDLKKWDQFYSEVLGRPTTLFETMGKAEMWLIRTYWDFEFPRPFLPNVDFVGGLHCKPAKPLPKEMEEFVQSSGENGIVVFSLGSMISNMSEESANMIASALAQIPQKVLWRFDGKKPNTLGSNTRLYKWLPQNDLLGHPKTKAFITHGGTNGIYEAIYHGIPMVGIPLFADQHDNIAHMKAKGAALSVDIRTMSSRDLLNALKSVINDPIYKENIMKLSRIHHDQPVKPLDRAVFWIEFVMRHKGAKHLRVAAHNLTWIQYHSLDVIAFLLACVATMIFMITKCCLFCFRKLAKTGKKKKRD

UGT2B4 = target: T2, UGT2B4 (Homo sapiens, UniProt P06133); test: Inhibition of human recombinant UGT2B4 at 25 uM by fluorescence spectroscopy; design: scale not given: the % may be the effect or the level left; conditions: read-out: Activity
T2 sequence (P06133 whole entry): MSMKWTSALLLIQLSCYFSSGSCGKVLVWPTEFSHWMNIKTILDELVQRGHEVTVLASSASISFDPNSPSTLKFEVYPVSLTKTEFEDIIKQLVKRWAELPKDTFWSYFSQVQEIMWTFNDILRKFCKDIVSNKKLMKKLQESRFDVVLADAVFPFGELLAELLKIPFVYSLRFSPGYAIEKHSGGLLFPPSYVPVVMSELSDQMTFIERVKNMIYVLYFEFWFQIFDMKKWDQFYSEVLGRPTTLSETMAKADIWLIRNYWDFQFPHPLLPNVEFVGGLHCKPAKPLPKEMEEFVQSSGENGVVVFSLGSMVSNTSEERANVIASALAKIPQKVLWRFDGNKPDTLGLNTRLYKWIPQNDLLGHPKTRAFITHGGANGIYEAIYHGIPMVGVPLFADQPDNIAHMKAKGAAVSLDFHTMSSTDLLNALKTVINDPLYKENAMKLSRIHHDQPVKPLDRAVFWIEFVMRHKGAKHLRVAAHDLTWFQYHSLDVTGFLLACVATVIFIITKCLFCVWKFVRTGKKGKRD

UGT2B15 = target: T3, UGT2B15 (Homo sapiens, UniProt P54855); test: Inhibition of human recombinant UGT2B15 at 25 uM by fluorescence spectroscopy; design: scale not given: the % may be the effect or the level left; conditions: read-out: Activity
T3 sequence (P54855 whole entry): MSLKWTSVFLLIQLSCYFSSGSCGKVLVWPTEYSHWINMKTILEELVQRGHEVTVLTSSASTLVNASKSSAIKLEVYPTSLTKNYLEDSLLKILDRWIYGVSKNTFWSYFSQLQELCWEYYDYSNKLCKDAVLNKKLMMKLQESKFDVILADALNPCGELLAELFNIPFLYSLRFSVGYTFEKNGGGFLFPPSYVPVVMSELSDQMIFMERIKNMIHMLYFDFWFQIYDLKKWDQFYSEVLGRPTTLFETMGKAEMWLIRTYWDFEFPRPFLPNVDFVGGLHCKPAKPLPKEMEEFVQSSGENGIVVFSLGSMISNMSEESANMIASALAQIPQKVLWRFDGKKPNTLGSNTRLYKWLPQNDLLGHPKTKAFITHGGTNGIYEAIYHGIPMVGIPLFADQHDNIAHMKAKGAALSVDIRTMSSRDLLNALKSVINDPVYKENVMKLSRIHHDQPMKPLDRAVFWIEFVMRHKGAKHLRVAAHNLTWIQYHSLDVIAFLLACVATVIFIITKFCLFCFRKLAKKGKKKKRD

UGT2B17 = target: T4, UGT2B17 (Homo sapiens, UniProt O75795); test: Inhibition of human recombinant UGT2B17 at 25 uM by fluorescence spectroscopy
T4 sequence (O75795 whole entry): T1 sequence (O75795 whole entry)

UGT2B28 = target: T5, UGT2B28 (Homo sapiens, UniProt Q9BY64); test: Inhibition of human recombinant UGT2B28 at 25 uM by fluorescence spectroscopy; design: scale not given: the % may be the effect or the level left; conditions: read-out: Activity
T5 sequence (Q9BY64 whole entry): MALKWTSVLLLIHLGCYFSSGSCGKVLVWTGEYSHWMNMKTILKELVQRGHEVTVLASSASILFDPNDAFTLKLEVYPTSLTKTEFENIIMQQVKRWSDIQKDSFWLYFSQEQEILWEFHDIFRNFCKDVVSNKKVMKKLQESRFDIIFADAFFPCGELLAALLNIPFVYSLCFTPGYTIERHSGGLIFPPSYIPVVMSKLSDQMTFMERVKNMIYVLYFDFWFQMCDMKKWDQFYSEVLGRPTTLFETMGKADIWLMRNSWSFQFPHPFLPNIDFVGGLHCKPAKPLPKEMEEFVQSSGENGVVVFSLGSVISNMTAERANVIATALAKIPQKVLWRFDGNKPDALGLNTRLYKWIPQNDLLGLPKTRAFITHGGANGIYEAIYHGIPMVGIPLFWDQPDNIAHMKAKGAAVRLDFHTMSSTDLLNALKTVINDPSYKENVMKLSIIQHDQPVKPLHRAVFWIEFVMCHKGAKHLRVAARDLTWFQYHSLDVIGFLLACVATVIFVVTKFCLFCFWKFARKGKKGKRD

UGT2B10 = target: T6, UGT2B10 (Homo sapiens, UniProt P36537); test: Inhibition of human recombinant UGT2B10 at 25 uM by fluorescence spectroscopy; design: scale not given: the % may be the effect or the level left; conditions: read-out: Activity
T6 sequence (P36537 whole entry): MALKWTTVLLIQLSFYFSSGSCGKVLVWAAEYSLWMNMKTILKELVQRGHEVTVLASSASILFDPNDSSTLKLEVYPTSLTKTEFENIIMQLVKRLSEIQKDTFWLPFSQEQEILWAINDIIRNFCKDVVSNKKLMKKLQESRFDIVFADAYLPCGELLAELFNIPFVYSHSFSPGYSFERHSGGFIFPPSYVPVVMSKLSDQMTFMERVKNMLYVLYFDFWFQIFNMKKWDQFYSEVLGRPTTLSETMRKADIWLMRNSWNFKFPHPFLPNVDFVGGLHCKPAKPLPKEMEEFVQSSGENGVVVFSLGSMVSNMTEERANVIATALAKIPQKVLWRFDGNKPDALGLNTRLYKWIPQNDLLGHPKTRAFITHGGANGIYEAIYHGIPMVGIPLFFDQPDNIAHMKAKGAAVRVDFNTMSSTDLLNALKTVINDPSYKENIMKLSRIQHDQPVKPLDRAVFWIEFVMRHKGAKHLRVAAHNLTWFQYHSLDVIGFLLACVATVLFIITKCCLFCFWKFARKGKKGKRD

Compound `CC1(C)CCC[C@]2(C)[C@@H]([C@@H](O)c3ccccc3)[C@H]3CC[C@@H]2[C@H]31` has a pKi [1] of 4.66, an activity at 25 µM (UGT2B4) of 30% and an activity at 25 µM (UGT2B15) of 30%. For the same compound, the inhibition at 25 µM (UGT2B17) was 70%, the activity at 25 µM (UGT2B28) was 30% and the activity at 25 µM (UGT2B10) was 30%.
